# Source: PMC7868322, “Rational Design of A Novel Small-Molecule HIV-1 Inactivator Targeting Both gp120 and gp41 of HIV-1” (Frontiers in Pharmacology, 2021)
# Where “and” joins values, the source holds several entries; their conditions need not be identical. Equal values may be shown once. Read-outs that look alike come from different tables or passages of the source.
# Legend:
# [1] = system: T2635-resistant virus H3C; format: cell-based, HIV-1; settings: T2635-resistant virus H3C (A6V L33S Q66R N126K H132Q E136G); means ± SD
# 92/TH/009 (A/E, R5) = assay: Inactivation of cell-free HIV-1 clinical virus; format: cell-based; settings: Human immunodeficiency virus 1, inactivation of cell-free virions, means ± SD
# [2] = system: T20-resistant virus V38E N42S; format: cell-based, HIV-1; settings: means ± SD
# [3] = molecular target: T1, 6HB formation between N36 and C34-biotin (Human immunodeficiency virus type 1 group M subtype B, UniProt P04578); assay: ELISA inhibition of six-helix bundle formation; format: biochemical, HIV-1; settings: IC50, inhibition of 6HB formation between N36 and C34-biotin, peptides 0.5 μM final
# T1 construct: preincubated with N36 peptide (2 μM, 50 μL) at 37°C for 1 h; purchased NIH AIDS Reagent Program
# Description: An inhibitor (compound or C-peptide control) at graded concentrations was preincubated with N36 peptide (2 μM, 50 μL) at 37°C for 1 h. […] Subsequently, 50 μL of the mixture were added to the wells of the NC-1-coated plate, followed by incubation for 1 h. Then, HRP-labeled streptavidin and the substrate were added sequentially. The optical density at 450 nm was measured using a microplate reader (Tecan, Männedorf, Switzerland).
# KNH1135 (A, R5) = assay: microbe, parasite or virus in culture; format: cell-based, HIV-1; settings: Human immunodeficiency virus 1; inactivation of cell-free virions, clinical virus KNH1135 (A, R5); means ± SD
# HIV-1 IIIB (X4) = assay: Inhibition of HIV-1 infection (p24 ELISA); format: cell-based; settings: Human immunodeficiency virus 1, MT2; laboratory-adapted strain IIIB, MT-2 cells, p24 ELISA; read-out: IC50, inhibition of HIV-1 IIIB infection
# [4] = system: T2635-resistant virus Q79E N126K; format: cell-based, HIV-1; settings: inactivation of cell-free virions, means ± SD
# WT (LAI) = assay: microbe, parasite or virus in culture; settings: Human immunodeficiency virus 1
# Description: The inactivation activities of the compounds, alone or in combination, against different cell-free HIV-1 virions were measured as previously described ([Qi et al., 2017]). Briefly, different concentrations of compound or PBS were incubated with 800 TCID50 live virus for 1 h at 4°C. Subsequently, PEG-6000 was added to a final concentration of 3% and incubated for another 1 h at 4°C. The virus was collected by centrifugation of the mixture at 13,000 rpm at 4°C for 30 min. The supernatant was discarded, and the virus was resuspended in 3% PEG-6000 containing 10 mg/mL BSA and centrifuged at 13,000 rpm at 4°C for 30 min. The above procedure was repeated twice to completely remove residual compounds. Finally, the virus particles were resuspended in 100 μL of medium and added to 100 μL of 3 × 10^4 MT-2 or CEMx 174 5.25 M7 cells. After 3-4 days of incubation at 37°C, 50 μL of supernatant per well were collected and mixed with the same volume of 5% Triton X-100. The p24 antigen was detected by ELISA.
# 92/UG/001 (D, R5 and X4) = assay: Inhibition of HIV-1 clinical virus infection; format: cell-based; settings: Human immunodeficiency virus 1; HIV-1 clinical virus 92/UG/001 (D, R5 and X4); means ± SD
# [5] = system: T20-resistant virus V38A N42D; format: cell-based, HIV-1; settings: means ± SD
# HIV-1 Bal (R5) = assay: Inhibition of HIV-1 infection (p24 ELISA); format: cell-based; settings: Human immunodeficiency virus 1; laboratory-adapted strain Bal, CEMx174 5.25 M7 cells, p24 ELISA; read-out: IC50, inhibition of HIV-1 Bal infection
# [6] = system: T2635-resistant virus K90E N126K; format: cell-based, HIV-1; settings: inactivation of cell-free virions, means ± SD
# [7] = system: T20-resistant virus V38A N42T; format: cell-based, HIV-1; settings: means ± SD
# T20-resistant virus V38A = format: cell-based, HIV-1; settings: means ± SD
# [8] = system: T2635-resistant virus H3C; assay: microbe, parasite or virus in culture; format: cell-based, HIV-1; settings: Human immunodeficiency virus 1
# 93/BR/020 (F, R5 and X4) = assay: Inhibition of HIV-1 clinical virus infection; format: cell-based; settings: Human immunodeficiency virus 1; HIV-1 clinical virus 93/BR/020 (F, R5 and X4); means ± SD
# HIV-1 IIIB gp120 = HIV-1 IIIB gp120 (Human immunodeficiency virus type 1 group M subtype B, UniProt P04578); assay: ELISA inhibition of gp120 CD4bs-targeting mAbs binding to gp120; design: polystyrene plates were coated with 50 µL of HIV-1 IIIB gp120
# Description: Flow cytometry was used to detect compounds that competed with gp120 CD4bs-targeting mAbs for binding to gp120. In brief, 100 µL of FD016 at a concentration of 100 µM or PBS was first incubated with CHO-WT cells expressing HIV-1 HXB2 gp120 for 30 min at room temperature, and then gp120 CD4bs-targeting mAbs (5 μg/mL, 100 µL) and FITC-labeled goat anti-human secondary antibody were added successively. After three washes, the cells were analyzed with flow cytometry. ELISA was carried out to detect the activity of compounds that inhibit the binding of soluble CD4 (sCD4) or gp120 CD4bs-targeting mAbs to gp120 as previously described ([Si et al., 2004]; [Curreli et al., 2014]). Briefly, for sCD4 and gp120 binding, 50 µL of HIV-1 IIIB gp120 at 0.5 μg/mL was captured on polystyrene plate coated with sheep anti-gp120 antibody D7324 (Aalto Bio Reagents). sCD4 (ImmunoDiagnostics, Inc.) at 200 ng/mL was then added in the presence of an equal volume of different concentrations of compounds or PBS and incubated at 37°C for 1 h. Next, rabbit anti-sCD4 IgG (ImmunoDiagnostics, Inc.) at 250 ng/mL was added and incubated at 37°C for another 1 h, followed by goat anti-rabbit IgG-biotin (Invitrogen), streptavidin-horseradish peroxidase (Invitrogen). For gp120 CD4bs-targeting mAbs and gp120 binding, polystyrene plates were coated with 50 µL of HIV-1 IIIB gp120 (2 μg/mL in 0.1 mol/L sodium bicarbonate buffer (pH 8.6)) at 4°C overnight and then blocked with PBS containing 2% BSA at 37°C for 2 h. Next, gp120 CD4bs-targeting mAbs at 2 μg/mL were added in the presence of an equal volume of FD028 at different concentrations and incubated at 37°C for 1 h. Horseradish peroxidase (HRP)-labeled goat-anti-human IgG (Sigma-Aldrich) was added sequentially. After adding 3,3′,5,5′-tetramethylbenzidine chromogen substrate and sulfuric acid, the absorbance at 450 nm (A450) was recorded using a Microplate Reader (Tecan, Männedorf, Switzerland).
# WT (NL4-3 D36G) = format: cell-based, HIV-1; settings: T20-resistant virus panel, means ± SD
# [9] = system: T2635-resistant virus Q66R N126K; format: cell-based, HIV-1; settings: inactivation of cell-free virions, means ± SD
# 92/UG/024 (D, X4) = assay: Inhibition of HIV-1 clinical virus infection; format: cell-based; settings: Human immunodeficiency virus 1; HIV-1 clinical virus 92/UG/024 (D, X4); means ± SD
smiles,measurement,setting,value
"CC1(C)CC(NC(=O)C(=O)Nc2ccc(Cl)c(F)c2)CC(C)(C)N1C(=O)COc1ccc(CCN2C(=O)/C(=C/c3ccc(-c4ccc(Cl)c(C(=O)O)c4)o3)SC2=S)cc1 [FD028, (Z)-2-Chloro-5-(5-((3-(4-(2-(4-(2-((4-Chloro-3-Fluorophenyl)amino)-2-oxoacetamido)-2,2,6,6-Tetramethylpiperidin-1-yl)-2-oxoethoxy)phenethyl)-4-oxo-2-Thioxothiazolidin-5-ylidene)methyl)furan-2-yl)benzoic Acid]",IC50,[1],270 ± 60 nM
same,EC50,"92/TH/009 (A/E, R5)",260 ± 60 nM
same,IC50,[2],240 ± 20 nM
same,IC50,[3],2030 nM and ~2000 nM
same,EC50,"KNH1135 (A, R5)",1230 ± 320 nM
same,IC50,HIV-1 IIIB (X4),330 nM
same,EC50,[4],120 ± 20 nM
same,EC50,WT (LAI),40 ± 10 nM
same,IC50,"92/UG/001 (D, R5 and X4)",450 ± 120 nM
same,IC50,[5],480 ± 110 nM
same,IC50,HIV-1 Bal (R5),70 nM
same,EC50,[6],490 ± 60 nM
same,IC50,[7],950 ± 60 nM
same,IC50,T20-resistant virus V38A,1090 ± 130 nM
same,EC50,[8],1200 ± 140 nM
same,IC50,"93/BR/020 (F, R5 and X4)",380 ± 30 nM
same,IC50,"HIV-1 IIIB gp120; ELISA, mAb 2G12, read-out: IC50, inhibition of 2G12 binding to gp120",1420 nM
same,IC50,"HIV-1 IIIB gp120; ELISA, mAb 654-30D, read-out: IC50, inhibition of 654-30D binding to gp120",700 nM
same,IC50,"HIV-1 IIIB gp120; ELISA, mAb B12, read-out: IC50, inhibition of B12 binding to gp120",460 nM
same,IC50,"HIV-1 IIIB gp120; ELISA, mAb HJ16, read-out: IC50, inhibition of HJ16 binding to gp120",770 nM
same,IC50,"HIV-1 IIIB gp120; ELISA, mAb N6, read-out: IC50, inhibition of N6 binding to gp120",1230 nM
same,IC50,"HIV-1 IIIB gp120; ELISA, mAb VRC01, read-out: IC50, inhibition of VRC01 binding to gp120",420 nM
same,IC50,"HIV-1 IIIB gp120; ELISA, range over the mAbs, read-out: IC50, inhibition of binding of gp120 to different gp120 CD4bs-targeting mAbs",420 to 1420 nM
same,IC50,"HIV-1 IIIB gp120; IC50, inhibition of 3BNC117 binding to gp120, ELISA, mAb 3BNC117",520 nM
same,IC50,WT (NL4-3 D36G),170 ± 60 nM
same,EC50,[9],140 ± 70 nM
same,IC50,"92/UG/024 (D, X4)",1040 ± 160 nM
